Reference: article PMC6261661 (ACS chemical neuroscience, 2018)
Values joined by “and” are separate entries in the source; they are usually repeats but may differ in a detail not shown here. Identical values can stand only once. Like-named read-outs stand apart in the source and are kept apart here. Square brackets hold non-standard residues; d marks the D form. Peptide text beside a SMILES is read from it. Bip = N[C@@H](Cc1ccc(-c2ccccc2)cc1)C(=O)O; dBip = N[C@H](Cc1ccc(-c2ccccc2)cc1)C(=O)O; dPhe(4-I) = N[C@H](Cc1ccc(I)cc1)C(=O)O; 1Nal = N[C@@H](Cc1cccc2ccccc12)C(=O)O; 2Nal = N[C@@H](Cc1ccc2ccccc2c1)C(=O)O; d2Nal = N[C@H](Cc1ccc2ccccc2c1)C(=O)O; 3Pal = N[C@@H](Cc1cccnc1)C(=O)O; 4Pal = N[C@@H](Cc1ccncc1)C(=O)O; Tic = O=C(O)[C@@H]1Cc2ccccc2CN1; 2Thi = N[C@@H](Cc1cccs1)C(=O)O

Tests used:
mMC1R [1] = target: T1, mMC1R (Mus musculus, UniProt Q01727); settings: read-out: mMC1R EC50, reference peptide from the literature, cited from earlier work
T1 sequence (Q01727 whole entry): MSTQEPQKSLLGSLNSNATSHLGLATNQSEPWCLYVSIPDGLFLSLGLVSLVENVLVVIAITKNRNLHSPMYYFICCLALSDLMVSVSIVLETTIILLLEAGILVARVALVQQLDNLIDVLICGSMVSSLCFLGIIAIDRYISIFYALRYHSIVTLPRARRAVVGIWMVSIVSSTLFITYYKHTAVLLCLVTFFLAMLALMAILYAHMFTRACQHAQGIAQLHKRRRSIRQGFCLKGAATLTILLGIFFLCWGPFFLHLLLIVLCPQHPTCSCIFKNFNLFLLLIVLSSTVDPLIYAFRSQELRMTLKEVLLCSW

mMC3R [2] = target: T2, mMC3R (Mus musculus, UniProt P33033); settings: cited from earlier work; for EC50: read-out: mMC3R EC50, reference peptide from the literature
T2 sequence (P33033 whole entry): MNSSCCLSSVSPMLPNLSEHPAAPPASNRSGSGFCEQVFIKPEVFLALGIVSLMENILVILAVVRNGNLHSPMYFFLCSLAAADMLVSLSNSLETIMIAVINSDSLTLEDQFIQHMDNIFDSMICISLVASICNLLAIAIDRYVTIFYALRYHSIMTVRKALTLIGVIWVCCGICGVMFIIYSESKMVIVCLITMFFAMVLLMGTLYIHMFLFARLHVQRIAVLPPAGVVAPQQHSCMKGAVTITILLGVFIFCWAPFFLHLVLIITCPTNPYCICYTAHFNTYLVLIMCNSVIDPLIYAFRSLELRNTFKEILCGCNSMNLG

mMC4R [3] = target: T3, mMC4R (Mus musculus, UniProt P56450); settings: read-out: mMC4R EC50, reference peptide from the literature, cited from earlier work
T3 sequence (P56450 whole entry): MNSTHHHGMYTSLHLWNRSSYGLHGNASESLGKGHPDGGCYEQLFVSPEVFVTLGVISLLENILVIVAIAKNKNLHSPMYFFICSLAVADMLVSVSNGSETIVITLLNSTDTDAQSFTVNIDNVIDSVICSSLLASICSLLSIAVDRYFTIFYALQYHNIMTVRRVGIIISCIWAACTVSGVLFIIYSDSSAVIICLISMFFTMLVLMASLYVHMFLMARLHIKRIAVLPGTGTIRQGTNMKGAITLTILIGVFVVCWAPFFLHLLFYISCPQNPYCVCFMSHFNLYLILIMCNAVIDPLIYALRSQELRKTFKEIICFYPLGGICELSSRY

mMC5R [4] = target: T4, mMC5R (Mus musculus, UniProt P41149); settings: read-out: mMC5R EC50, reference peptide from the literature, cited from earlier work
T4 sequence (P41149 whole entry): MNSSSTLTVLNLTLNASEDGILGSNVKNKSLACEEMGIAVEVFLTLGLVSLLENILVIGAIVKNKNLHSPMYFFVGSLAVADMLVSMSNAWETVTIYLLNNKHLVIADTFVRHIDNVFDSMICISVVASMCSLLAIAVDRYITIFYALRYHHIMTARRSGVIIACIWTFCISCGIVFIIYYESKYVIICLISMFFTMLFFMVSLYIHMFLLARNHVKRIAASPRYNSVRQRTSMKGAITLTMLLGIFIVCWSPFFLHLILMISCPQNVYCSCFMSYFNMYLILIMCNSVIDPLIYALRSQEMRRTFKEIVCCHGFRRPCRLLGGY

mMC1R [5] = target: T1, mMC1R; test: CRE/β-galactosidase reporter gene bioassay, agonist activity at mMC1R; format: cell-based
mMC4R [6] = target: T3, mMC4R; test: CRE/β-galactosidase reporter gene bioassay, agonist activity at mMC4R; format: cell-based; settings: ligand at 100 μM, compared to maximal response generated by α-MSH
mMC5R [7] = target: T4, mMC5R; test: CRE/β-galactosidase reporter gene bioassay, agonist activity at mMC5R; format: cell-based; settings: for selectivity between the mMC1R and the mMC5R: monosubstituted reference peptides, from literature EC50 values of Table 3
mMC3R [8] = target: T2, mMC3R; test: Antagonist Schild analysis against agonist MTII at mMC3R; format: cell-based
mMC4R [9] = target: T3, mMC4R; test: Antagonist Schild analysis against agonist MTII at mMC4R; format: cell-based
male and female mice = settings: central administration, ref [37]; cited from earlier work
[10] = fold difference in EC50 vs peptide 1, negative prefix = more potent than 1
[11] = Ant = antagonist, SA = some stimulatory activity at 100 µM

Which results are given for “Ac-Trp-DPhe-Arg-Trp-NH2 (Ac-W[dF]RW-NH2; SMILES CC(=O)N[C@@H](Cc1c[nH]c2ccccc12)C(=O)N[C@H](Cc1ccccc1)C(=O)N[C@@H](CCCNC(=N)N)C(=O)N[C@@H](Cc1c[nH]c2ccccc12)C(N)=O) [Peptide 49]”?
EC50 (mMC1R [1]; ref [33]): 5400 ± 1800 nM; EC50 (mMC3R [2]; ref [33]): 10000 ± 2000 nM; EC50 (mMC4R [3]; ref [33]): 530 ± 150 nM; EC50 (mMC5R [4]; ref [33]): 510 ± 100 nM

Which results are given for Ac-H[dF]R[dBip]-NH2 [Peptide 43]?
EC50 (mMC1R [1]; ref [31]): 310 ± 70 nM; EC50 (mMC3R [2]; ref [31]): 16000 ± 5000 nM; EC50 (mMC4R [3]; ref [31]): 1500 ± 400 nM; EC50 (mMC5R [4]; ref [31]): 150 ± 10 nM

For “Ac-His-DPhe-Arg-Phe-NH2 (Ac-H[dF]RF-NH2; SMILES CC(=O)N[C@@H](Cc1c[nH]cn1)C(=O)N[C@H](Cc1ccccc1)C(=O)N[C@@H](CCCNC(=N)N)C(=O)N[C@@H](Cc1ccccc1)C(N)=O) [Peptide 37]”, which EC50 (mMC1R [1]; ref [31]) is on record?
The EC50 was 530 ± 240 nM.

And the EC50 (mMC3R [2]; ref [31])?
The EC50 was 27000 ± 7000 nM.

What about the EC50 (mMC4R [3]; ref [31]) of the same compound?
The EC50 was 7800 ± 2500 nM.

What about the EC50 (mMC5R [4]; ref [31]) of the same compound?
The EC50 was 890 ± 110 nM.

For Ac-[3Pal][dF]RW-NH2 [Peptide 50], which EC50 (mMC1R [1]; ref [33]) is on record?
Its EC50 is 1200 ± 200 nM.

And the “mMC3R pharmacology in words” value (mMC3R [2]; ref [33])?
Its value is “only slight agonist activity”.

And the EC50 (mMC4R [3]; ref [33])?
Its EC50 is 890 ± 100 nM.

What about the EC50 (mMC5R [4]; ref [33]) of the same compound?
Its EC50 is 400 ± 100 nM.

What does the source list for “Octanoyl-His-DPhe-Arg-Trp-NH2 [Peptide 54]”?
EC50 (mMC3R [2]; ref [34]): 4 ± 0.7 nM; EC50 (mMC5R [4]; ref [34]): 0.79 ± 0.25 nM

What does the source list for `CC(=O)N[C@@H](Cc1c[nH]c2ccccc12)C(=O)N[C@H](Cc1ccc(I)cc1)C(=O)N[C@@H](CCCNC(=N)N)C(=O)N[C@@H](Cc1c[nH]c2ccccc12)C(N)=O` [Peptide 13, Ac-Trp-(pI)DPhe-Arg-Trp-NH2] (Ac-W[dPhe(4-I)]RW-NH2)?
mMC1R Fold Diff (mMC1R [5]; [10]): 30; EC50 (mMC1R [5]; mMC1R EC50, agonist, HEK-293 cells stably expressing receptor, ±SEM): 4200 ± 1200 nM; mMC4R relative percentage of stimulation at 100 μM (mMC4R [6]): 40%; EC50 (mMC5R [7]): 10000 ± 3000 nM; mMC5R Fold Diff. (mMC5R [7]; [10]): 1905; mMC5R fold less potent than peptide 1 (mMC5R [7]; less potent than 1): 1900 fold; Kb (mMC3R [8]): 63.1 nM; mMC3R pharmacology class printed in Fold Diff column (Ant, SA) (mMC3R [8]; [11]): Ant; Kb (mMC4R [9]): 5.01 nM; mMC4R pharmacology class printed in Fold Diff. column (Ant, SA) (mMC4R [9]; [11]): SA Ant; effect on energy homeostasis in vivo (male and female mice): different effects on energy homeostasis in male mice compared to female mice

Which EC50 (mMC1R [1]; ref [31]) does the source give for Ac-His-DPhe-Arg-3Bal-NH2 [Peptide 44] here?
The EC50 was 80 ± 9 nM.

And the EC50 (mMC3R [2]; ref [31])?
Its EC50 is 3700 ± 1400 nM.

And the EC50 (mMC4R [3]; ref [31])?
Its EC50 is 140 ± 20 nM.

What about the EC50 (mMC5R [4]; ref [31]) of the same compound?
The EC50 was 48 ± 4 nM.

Which results are given for Ac-H[dF]R[Tic]-NH2 [Peptide 41]?
EC50 (mMC1R [1]; ref [31]): 43 ± 13 nM; EC50 (mMC3R [2]; ref [31]): 23000 ± 2000 nM; EC50 (mMC4R [3]; ref [31]): 8500 ± 900 nM; EC50 (mMC5R [4]; ref [31]): 700 ± 100 nM

What does the source list for Ac-H[dF]R[1Nal]-NH2 [Peptide 38]?
EC50 (mMC1R [1]; ref [31]): 730 ± 320 nM; EC50 (mMC3R [2]; ref [31]): 3500 ± 1300 nM; EC50 (mMC4R [3]; ref [31]): 260 ± 30 nM; EC50 (mMC5R [4]; ref [31]): 33 ± 4 nM

Which results are given for Ac-His-DBip-Arg-Trp-NH2 [Peptide 47]?
EC50 (mMC1R [1]; ref [32]): 28 ± 11 nM; EC50 (mMC3R [2]; ref [32]): 2100 ± 700 nM; EC50 (mMC4R [3]; ref [32]): 68 ± 16 nM; EC50 (mMC5R [4]; ref [32]): 11.6 ± 3.9 nM

Which results are given for `CC(=O)N[C@@H](Cc1c[nH]cn1)C(=O)N[C@H](Cc1ccccc1)C(=O)N[C@@H](CCCNC(=N)N)C(=O)N[C@@H](Cc1ccc2ccccc2c1)C(N)=O` [Peptide 39, Ac-His-DPhe-Arg-Nal(2’)-NH2] (Ac-H[dF]R[2Nal]-NH2)?
selectivity between the mMC1R and the mMC5R (mMC5R [7]): ≤ 5 fold; EC50 (mMC1R [1]; ref [31]): 17.9 ± 6 nM; EC50 (mMC3R [2]; ref [31]): 740 ± 160 nM; EC50 (mMC4R [3]; ref [31]): 16 nM and 15.8 nM; EC50 (mMC5R [4]; ref [31]): 4.9 ± 1.5 nM

What does the source list for “Ac-His-DNal(1’)-Arg-Trp-NH2 [Peptide 46]”?
EC50 (mMC1R [1]; ref [32]): 360 ± 60 nM; EC50 (mMC3R [2]; ref [32]): 4100 ± 100 nM; EC50 (mMC4R [3]; ref [32]): 300 ± 70 nM; EC50 (mMC5R [4]; ref [32]): 51 ± 4 nM

Which EC50 (mMC3R [2]; ref [33]) does the source give for Ac-DHis-DPhe-Arg-Trp-NH2 [Peptide 53] here?
The EC50 was 6200 ± 2500 nM.

What about the EC50 (mMC5R [4]; ref [33]) of the same compound?
Its EC50 is 140 ± 20 nM.

With Ac-H[dF]R[Bip]-NH2 [Peptide 42] as the compound, how does the EC50 (mMC1R [1]; ref [31]) read?
The EC50 was 52 ± 10 nM.

What about the EC50 (mMC3R [2]; ref [31]) of the same compound?
Its EC50 is 13000 ± 800 nM.

What about the EC50 (mMC4R [3]; ref [31]) of the same compound?
Its EC50 is 2700 ± 500 nM.

What about the EC50 (mMC5R [4]; ref [31]) of the same compound?
The EC50 was 100 ± 20 nM.

Which EC50 (mMC1R [1]; ref [33]) does the source give for Ac-[4Pal][dF]RW-NH2 [Peptide 51] here?
Its EC50 is 180 ± 80 nM.

And the EC50 (mMC3R [2]; ref [33])?
The EC50 was 2300 ± 800 nM.

And the EC50 (mMC4R [3]; ref [33])?
The EC50 was 130 ± 30 nM.

What about the EC50 (mMC5R [4]; ref [33]) of the same compound?
Its EC50 is 93 ± 22 nM.

For “Ac-Phe-DPhe-Arg-Trp-NH2 (Ac-F[dF]RW-NH2; SMILES CC(=O)N[C@@H](Cc1ccccc1)C(=O)N[C@H](Cc1ccccc1)C(=O)N[C@@H](CCCNC(=N)N)C(=O)N[C@@H](Cc1c[nH]c2ccccc12)C(N)=O) [Peptide 48]”, which EC50 (mMC1R [1]; ref [33]) is on record?
Its EC50 is 500 ± 100 nM.

What about the EC50 (mMC3R [2]; ref [33]) of the same compound?
Its EC50 is 12000 ± 2000 nM.

What about the EC50 (mMC4R [3]; ref [33]) of the same compound?
Its EC50 is 71 ± 14 nM.

What about the EC50 (mMC5R [4]; ref [33]) of the same compound?
The EC50 was 140 ± 5 nM.

What does the source list for Ac-H[dF]R[d2Nal]-NH2 [Peptide 40]?
EC50 (mMC1R [1]; ref [31]): 130 ± 30 nM; EC50 (mMC3R [2]; ref [31]): 1600 ± 600 nM; EC50 (mMC4R [3]; ref [31]): 46.2 ± 7.9 nM; EC50 (mMC5R [4]; ref [31]): 12.1 ± 3.3 nM

Which results are given for `CC(=O)N[C@@H](Cc1cccs1)C(=O)N[C@H](Cc1ccccc1)C(=O)N[C@@H](CCCNC(=N)N)C(=O)N[C@@H](Cc1c[nH]c2ccccc12)C(N)=O` [Peptide 52, Ac-2Thi-DPhe-Arg-Trp-NH2] (Ac-[2Thi][dF]RW-NH2)?
selectivity between the mMC1R and the mMC5R (mMC5R [7]): ≤ 5 fold; EC50 (mMC1R [1]; ref [33]): 200 ± 40 nM; EC50 (mMC3R [2]; ref [33]): 3000 ± 300 nM; EC50 (mMC5R [4]; ref [33]): 41 ± 13 nM
